Source: PMC5007552, “The hVps34‐SGK3 pathway alleviates sustained PI3K/Akt inhibition by stimulating mTORC1 and tumour growth” (The EMBO Journal, 2016)
Where “and” joins values, the source holds several entries; their conditions need not be identical. Equal entries are not always repeated.

Test system: ZR-75-1 cells
Test: NanoString human kinome mRNA quantification
Assay type: cell-based
From the text: Human mRNAs were hybridised to NanoString human kinome and control code sets, then subjected to quantification using NanoString software. […] To permit data compaction, and simple kinome‐wide comparisons, the fold changes are log2 transformed. […] Cell pellets were resuspended at a concentration of ~6,500 cells/μl in RLT buffer (Qiagen). […] For total copy numbers, triplicate normalised count values were averaged, and to calculate fold induction, means were divided by triplicate mean values from matched DMSO controls. P‐values were calculated using unpaired t‐test (GraphPad Prism software) by employing treated and control count data for each kinase mRNA.

SMILES: NC1(c2ccc(-c3nc4ccn5c(=O)[nH]nc5c4cc3-c3ccccc3)cc2)CCC1 [MK-2206]
- MAP2K6 Normalised counts (single replicates) (MAP2K6 mRNA, replicates 1-3): 273.54 and 301.57
- MAP2K7 Normalised counts Average (MAP2K7 mRNA, average of 3): 452.7
- MAP2K7 Normalised counts (single replicates) (MAP2K7 mRNA, replicates 1-3): 481.41 and 429.05 and 447.64
- MAP3K1 Normalised counts Average (MAP3K1 mRNA, average of 3): 914.477
- MAP3K1 Normalised counts (single replicates) (MAP3K1 mRNA, replicates 1-3): 890.44 and 933.79 and 919.2
- MAP3K2 Normalised counts Average (MAP3K2 mRNA, average of 3): 686.32
- MAP3K2 Normalised counts (single replicates) (MAP3K2 mRNA, replicates 1-3): 635.93 and 734.85 and 688.18
- MAP3K3 Normalised counts Average (MAP3K3 mRNA, average of 3): 686.967
- MAP3K3 Normalised counts (single replicates) (MAP3K3 mRNA, replicates 1-3): 685.93 and 665.35 and 709.62
- MAP3K4 Normalised counts Average (MAP3K4 mRNA, average of 3): 878.993
- MAP3K4 Normalised counts (single replicates) (MAP3K4 mRNA, replicates 1-3): 874.08 and 929.44 and 833.46
- MAP3K5 Normalised counts Average (MAP3K5 mRNA, average of 3): 52.5933
- MAP3K5 Normalised counts (single replicates) (MAP3K5 mRNA, replicates 1-3): 46.02 and 55.49 and 56.27
- MAP3K6 Normalised counts Average (MAP3K6 mRNA, average of 3): 449.24
- MAP3K6 Normalised counts (single replicates) (MAP3K6 mRNA, replicates 1-3): 420.51 and 453.37 and 473.84
- MAP3K7 Normalised counts Average (MAP3K7 mRNA, average of 3): 743.277
- MAP3K7 Normalised counts (single replicates) (MAP3K7 mRNA, replicates 1-3): 716.83 and 700.97 and 812.03
- MAP3K8 Normalised counts Average (MAP3K8 mRNA, average of 3): 26.4033
- MAP3K8 Normalised counts (single replicates) (MAP3K8 mRNA, replicates 1-3): 26.93 and 28.56 and 23.72
- MAP3K9 Normalised counts Average (MAP3K9 mRNA, average of 3): 379.6
- MAP3K9 Normalised counts (single replicates) (MAP3K9 mRNA, replicates 1-3): 365.97 and 402.99 and 369.84
- MAP3K10 Normalised counts Average (MAP3K10 mRNA, average of 3): 168.847
- MAP3K10 Normalised counts (single replicates) (MAP3K10 mRNA, replicates 1-3): 162.36 and 182.33 and 161.85
- MAP3K11 Normalised counts Average (MAP3K11 mRNA, average of 3): 121.413
- MAP3K11 Normalised counts (single replicates) (MAP3K11 mRNA, replicates 1-3): 113.28 and 123.25 and 127.71
- MAP3K12 Normalised counts Average (MAP3K12 mRNA, average of 3): 52.4667
- MAP3K12 Normalised counts (single replicates) (MAP3K12 mRNA, replicates 1-3): 51.47 and 61.57 and 44.36
- MAP3K13 Normalised counts Average (MAP3K13 mRNA, average of 3): 189.707
- MAP3K13 Normalised counts (single replicates) (MAP3K13 mRNA, replicates 1-3): 181.45 and 198.83 and 188.84
- MAP3K14 Normalised counts Average (MAP3K14 mRNA, average of 3): 43.9833
- MAP3K14 Normalised counts (single replicates) (MAP3K14 mRNA, replicates 1-3): 37.84 and 44.2 and 49.91
- MAP3K15 Normalised counts Average (MAP3K15 mRNA, average of 3): 13.0267
- MAP3K15 Normalised counts (single replicates) (MAP3K15 mRNA, replicates 1-3): 12.38 and 17.27 and 9.43
- MAP4K1 Normalised counts Average (MAP4K1 mRNA, average of 3): 25.6067
- MAP4K1 Normalised counts (single replicates) (MAP4K1 mRNA, replicates 1-3): 20.57 and 28.56 and 27.69
- MAP4K2 Normalised counts Average (MAP4K2 mRNA, average of 3): 517.167
- MAP4K2 Normalised counts (single replicates) (MAP4K2 mRNA, replicates 1-3): 521.4 and 514.19 and 515.91
- MAP4K3 Normalised counts Average (MAP4K3 mRNA, average of 3): 998.393
- MAP4K3 Normalised counts (single replicates) (MAP4K3 mRNA, replicates 1-3): 947.71 and 1044.12 and 1003.35
- MAP4K4 Normalised counts Average (MAP4K4 mRNA, average of 3): 871.587
- MAP4K4 Normalised counts (single replicates) (MAP4K4 mRNA, replicates 1-3): 808.64 and 924.23 and 881.89
- MAP4K5 Normalised counts Average (MAP4K5 mRNA, average of 3): 2400.42
- MAP4K5 Normalised counts (single replicates) (MAP4K5 mRNA, replicates 1-3): 2332.97 and 2437.58 and 2430.72
- MAPK1 Normalised counts Average (MAPK1 mRNA, average of 3): 3519.07
- MAPK1 Normalised counts (single replicates) (MAPK1 mRNA, replicates 1-3): 3459.18 and 3429.68 and 3668.36
- MAPK3 Normalised counts Average (MAPK3 mRNA, average of 3): 2954.55
- MAPK3 Normalised counts (single replicates) (MAPK3 mRNA, replicates 1-3): 2922.89 and 2952.74 and 2988.02
- MAPK4 Normalised counts Average (MAPK4 mRNA, average of 3): 4.88
- MAPK4 Normalised counts (single replicates) (MAPK4 mRNA, replicates 1-3): 3.29 and 5.1 and 6.25
- MAPK6 Normalised counts Average (MAPK6 mRNA, average of 3): 1788.65
- MAPK6 Normalised counts (single replicates) (MAPK6 mRNA, replicates 1-3): 1729.42 and 1778.2 and 1858.34
- MAPK7 Normalised counts Average (MAPK7 mRNA, average of 3): 144.45
- MAPK7 Normalised counts (single replicates) (MAPK7 mRNA, replicates 1-3): 156 and 134.55 and 142.8
- MAPK8 Normalised counts Average (MAPK8 mRNA, average of 3): 551.453
- MAPK8 Normalised counts (single replicates) (MAPK8 mRNA, replicates 1-3): 558.67 and 556.75 and 538.94
- MAPK9 Normalised counts Average (MAPK9 mRNA, average of 3): 3428.01
- MAPK9 Normalised counts (single replicates) (MAPK9 mRNA, replicates 1-3): 3385.55 and 3472.25 and 3426.23
- MAPK10 Normalised counts Average (MAPK10 mRNA, average of 3): 51.74
- MAPK10 Normalised counts (single replicates) (MAPK10 mRNA, replicates 1-3): 66.92 and 32.03 and 56.27
- MAPK11 Normalised counts Average (MAPK11 mRNA, average of 3): 204.103
- MAPK11 Normalised counts (single replicates) (MAPK11 mRNA, replicates 1-3): 193.27 and 212.73 and 206.31
- MAPK12 Normalised counts Average (MAPK12 mRNA, average of 3): 217.317
- MAPK12 Normalised counts (single replicates) (MAPK12 mRNA, replicates 1-3): 225.99 and 210.13 and 215.83
- MAPK13 Normalised counts Average (MAPK13 mRNA, average of 3): 1105.76
- MAPK13 Normalised counts (single replicates) (MAPK13 mRNA, replicates 1-3): 1118.59 and 1094.51 and 1104.17
- MAPK14 Normalised counts Average (MAPK14 mRNA, average of 3): 677.43
- MAPK14 Normalised counts (single replicates) (MAPK14 mRNA, replicates 1-3): 691.38 and 666.22 and 674.69
- MAPK15 Normalised counts Average (MAPK15 mRNA, average of 3): 105.53
- MAPK15 Normalised counts (single replicates) (MAPK15 mRNA, replicates 1-3): 90.56 and 110.22 and 115.81
- MAPKAPK2 Normalised counts Average (MAPKAPK2 mRNA, average of 3): 1630.94
- MAPKAPK2 Normalised counts (single replicates) (MAPKAPK2 mRNA, replicates 1-3): 1646.7 and 1595.77 and 1650.35
- MAPKAPK3 Normalised counts Average (MAPKAPK3 mRNA, average of 3): 413.777
- MAPKAPK3 Normalised counts (single replicates) (MAPKAPK3 mRNA, replicates 1-3): 380.52 and 429.05 and 431.76
- MAPKAPK5 Normalised counts Average (MAPKAPK5 mRNA, average of 3): 1446.88
- MAPKAPK5 Normalised counts (single replicates) (MAPKAPK5 mRNA, replicates 1-3): 1508.54 and 1415.94 and 1416.16
- MARK1 Normalised counts Average (MARK1 mRNA, average of 3): 415.69
- MARK1 Normalised counts (single replicates) (MARK1 mRNA, replicates 1-3): 399.6 and 430.79 and 416.68
- MARK2 Normalised counts Average (MARK2 mRNA, average of 3): 1522.43
- MARK2 Normalised counts (single replicates) (MARK2 mRNA, replicates 1-3): 1510.36 and 1537.56 and 1519.36
- MARK3 Normalised counts Average (MARK3 mRNA, average of 3): 1279.49
- MARK3 Normalised counts (single replicates) (MARK3 mRNA, replicates 1-3): 1275.85 and 1283.02 and 1279.61
- MARK4 Normalised counts Average (MARK4 mRNA, average of 3): 1238.46
- MARK4 Normalised counts (single replicates) (MARK4 mRNA, replicates 1-3): 1216.76 and 1258.7 and 1239.92
- MAST1 Normalised counts Average (MAST1 mRNA, average of 3): 64.11
- MAST1 Normalised counts (single replicates) (MAST1 mRNA, replicates 1-3): 68.74 and 54.62 and 68.97
- MAST2 Normalised counts Average (MAST2 mRNA, average of 3): 721.127
